Assay results: patent publication US20240059703A1 (AMGEN INC., priority 2021, published 2024)

Assays:
[1] = tested on: A549 (human lung carcinoma) cells; assay: Cell Viability Assay (CellTiter-Glo), A549; format: cell-based; settings: Homo sapiens, A549, 72 h
Summary of the method: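 MIA PaCa-2 or A549 cells in RPMI 1640 with 10% FBS were seeded at 1.67E+04 cells/mL and incubated overnight. Serially diluted compound was then added for 72 h at 37° C, 5% CO2. Viability read by CellTiter-Glo luminescence, normalized to DMSO, with IC50 from a 4-parameter logistic fit.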

[2] = tested on: MIA PaCa-2 (human pancreatic carcinoma) cells; assay: Cell Viability Assay (CellTiter-Glo), MIA PaCa-2; format: cell-based; settings: Homo sapiens, MIA PaCa-2, 72 h
Description: Serially-diluted compound or DMSO was added to the cells, and plates were incubated at 37° C., 5% CO2 for 72 h. Cell viability was measured using a CellTiter-Glo® Luminescent Cell Viability Assay kit (Promega) according to the manufacturer's protocol. The luminescence signal of treated samples was normalized to DMSO control, and data were analyzed using a 4-parameter logistic model to calculate IC50 values.

[3] = target: KRAS G12C (Homo sapiens (Human), UniProt P01116, C118A/G12C); assay: 2 h coupled exchange assay; format: biochemical; settings: Avg 2 h Coupled exchange IC50, 2 h compound pre-incubation
Description: The term “2 h coupled exchange assay” or “20 h coupled exchange assay” as used herein refers to the assay described in the Section entitled “BIOLOGICAL EVALUATION.”

Sequence of KRAS G12C (P01116 other isoform, or with tags, fused parts or gaps G12C/C118A): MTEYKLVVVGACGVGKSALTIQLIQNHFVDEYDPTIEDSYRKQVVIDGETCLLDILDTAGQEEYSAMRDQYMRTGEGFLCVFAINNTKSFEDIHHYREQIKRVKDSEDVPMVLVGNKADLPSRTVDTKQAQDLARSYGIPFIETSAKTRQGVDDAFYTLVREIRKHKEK

SMILES | IC50 [1] | IC50 [2] | IC50 [3]
C=CC(=O)N1CC2(CCN(c3nc4cc(-c5cncnc5)ccc4c(-c4ccc(F)cc4F)c3C#N)C2)C1 [Example 20-12, 4-(2,4-difluorophenyl)-2-(2-(2-propenoyl)-2,6-diazaspiro[3.4]octan-6-yl)-7-(5-pyrimidinyl)-3-quinolinecarbonitrile] | > 25000 nM | 2060 nM | 245 nM
C=CC(=O)N1CC2(CCN(c3nc4cc(-c5scnc5C)ccc4c(-c4ccc(F)cc4F)c3C#N)C2)C1 [Example 20-13, 4-(2,4-difluorophenyl)-7-(4-methyl-1,3-thiazol-5-yl)-2-(2-(2-propenoyl)-2,6-diazaspiro[3.4]octan-6-yl)-3-quinolinecarbonitrile] | 5980 nM | 1070 nM | 104 nM
C=CC(=O)N1CC2(CCN(c3nc4cc(-c5nccn5C)ccc4c(-c4ccc(F)cc4F)c3C#N)C2)C1 [Example 20-14, 4-(2,4-difluorophenyl)-7-(1-methyl-1H-imidazol-2-yl)-2-(2-(2-propenoyl)-2,6-diazaspiro[3.4]octan-6-yl)-3-quinolinecarbonitrile] | 9150 nM | 1350 nM | 243 nM
C=CC(=O)N1CC2(CCN(c3nc4cc(-c5scnc5C)cnc4c(-c4ccccc4F)c3C#N)C2)C1 [Example 20-15, 4-(2-fluorophenyl)-7-(4-methyl-1,3-thiazol-5-yl)-2-(2-(2-propenoyl)-2,6-diazaspiro[3.4]octan-6-yl)-1,5-naphthyridine-3-carbonitrile] | > 5000 nM | 649 nM | 116 nM
C=CC(=O)N1CC2(CCN(c3nc4cc(-c5scnc5COC)ccc4c(-c4ccccc4F)c3C#N)C2)C1 [Example 20-16, 4-(2-fluorophenyl)-7-(4-(methoxymethyl)-1,3-thiazol-5-yl)-2-(2-(2-propenoyl)-2,6-diazaspiro[3.4]octan-6-yl)-3-quinolinecarbonitrile] | 9150 nM | 817 nM | 124 nM
C=CC(=O)N1CC2(CCN(c3nc4cc(-c5scnc5C)ccc4c(-c4ccccc4OC)c3C#N)C2)C1 [Example 20-17, 4-(2-methoxyphenyl)-7-(4-methyl-1,3-thiazol-5-yl)-2-(2-(2-propenoyl)-2,6-diazaspiro[3.4]octan-6-yl)-3-quinolinecarbonitrile] | 7580 nM | 1820 nM | 431 nM
C=CC(=O)N1CC2(CCN(c3nc4cc(-c5scnc5CO)ccc4c(-c4ccccc4F)c3C#N)C2)C1 [Example 20-18, 4-(2-fluorophenyl)-7-(4-(hydroxymethyl)-1,3-thiazol-5-yl)-2-(2-(2-propenoyl)-2,6-diazaspiro[3.4]octan-6-yl)-3-quinolinecarbonitrile] | > 5000 nM | 651 nM | 95 nM
C=CC(=O)N1CC2(CCN(c3nc4cc(-c5cncs5)ccc4c(-c4ccccc4F)c3C#N)C2)C1 [Example 20-19, 4-(2-fluorophenyl)-2-(2-(2-propenoyl)-2,6-diazaspiro[3.4]octan-6-yl)-7-(1,3-thiazol-5-yl)-3-quinolinecarbonitrile] | 4770 nM | 2070 nM | 325 nM
C=CC(=O)N1CC2(CCN(c3nc4cc(-c5scnc5C)ccc4c(-c4ccccc4O)c3C#N)C2)C1 [Example 20-20, 4-(2-hydroxyphenyl)-7-(4-methyl-1,3-thiazol-5-yl)-2-(2-(2-propenoyl)-2,6-diazaspiro[3.4]octan-6-yl)-3-quinolinecarbonitrile] | 6850 nM | 1750 nM | 162 nM
C=CC(=O)N1CC2(CCN(c3nc4cc(-c5scnc5C)cnc4c(-c4cccc(O)c4)c3C#N)C2)C1 [Example 20-21, 4-(3-hydroxyphenyl)-7-(4-methyl-1,3-thiazol-5-yl)-2-(2-(2-propenoyl)-2,6-diazaspiro[3.4]octan-6-yl)-1,5-naphthyridine-3-carbonitrile] | 10800 nM | 4970 nM | 958 nM
C=CC(=O)N1CC2(CCN(c3nc4cc(-c5scnc5C)cnc4c(-c4ccc(F)c(O)c4)c3C#N)C2)C1 [Example 20-22, 4-(4-fluoro-3-hydroxyphenyl)-7-(4-methyl-1,3-thiazol-5-yl)-2-(2-(2-propenoyl)-2,6-diazaspiro[3.4]octan-6-yl)-1,5-naphthyridine-3-carbonitrile] | 12100 nM | 7480 nM | 371 nM
C=CC(=O)N1CC2(CCN(c3nc4c(c(-c5ccccc5F)c3C#N)CCN(c3scnc3C)C4)C2)C1 [Example 21-1, 4-(2-fluorophenyl)-7-(4-methyl-1,3-thiazol-5-yl)-2-(2-(2-propenoyl)-2,6-diazaspiro[3.4]octan-6-yl)-5,6,7,8-tetrahydro-1,7-naphthyridine-3-carbonitrile] | > 5000 nM | 327 nM | 41 nM
C=CC(=O)N1CC2(CCN(c3nc4c(c(-c5ccccc5F)c3C#N)CCN(c3ccnn3C)C4)C2)C1 [Example 21-2, 4-(2-fluorophenyl)-7-(1-methyl-1H-pyrazol-5-yl)-2-(2-(2-propenoyl)-2,6-diazaspiro[3.4]octan-6-yl)-5,6,7,8-tetrahydro-1,7-naphthyridine-3-carbonitrile] | > 5000 nM | 805 nM | 189 nM
C=CC(=O)N1CC2(CCN(c3nc4c(c(-c5ccc(F)cc5F)c3C#N)CCN(c3scnc3C)C4)C2)C1 [Example 21-3, 4-(2,4-difluorophenyl)-7-(4-methyl-1,3-thiazol-5-yl)~2-(2-(2-propenoyl)-2,6-diazaspiro[3.4]octan-6-yl)-5,6,7,8-tetrahydro-1,7-naphthyridine-3~carbonitrile] | > 5000 nM | 190 nM | 25 nM
C=CC(=O)N1CC2(CCN(c3nc4c(c(-c5ccccc5F)c3C#N)CCN(c3scnc3C)C4C)C2)C1 [Example 21-4, (8R)-4-(2-fluorophenyl)-8-methyl-7-(4-methyl-1,3-thiazol-5-yl)-2-(2-(2-propenoyl)-2,6-diazaspiro[3.4]octan-6-yl)-5,6,7,8-tetrahydro-1,7-naphthyridine-3-carbonitrile (8S)-4-(2-fluorophenyl)-8-methyl-7-(4-methyl-1,3-thiazol-5-yl)-2-(2-(2-propenoyl)-2,6-diazaspiro[3.4]octan-6-yl)-5,6,7,8-tetrahydro-1,7-naphthyridine-3-carbonitrile] | 10100 nM | 1610 nM | 85 nM
C=CC(=O)N1CC2(CCN(c3nc4c(c(-c5ccccc5F)c3C#N)CCN(c3scnc3C)[C@@H]4C)C2)C1 [Example 21-5, (8R)-4-(2-fluorophenyl)-8-methyl-7-(4-methyl-1,3-thiazol-5-yl)-2-(2-(2-propenoyl)-2,6-diazaspiro[3.4]octan-6-yl)-5,6,7,8-tetrahydro-1,7-naphthyridine-3-carbonitrile] | 3980 nM | 454 nM | 57 nM
C=CC(=O)N1CC2(CCN(c3nc4c(c(-c5ccccc5F)c3C#N)CCN(c3scnc3C)[C@H]4C)C2)C1 [Example 21-6, (8S)-4-(2-fluorophenyl)-8-methyl-7-(4-methyl-1,3-thiazol-5-yl)-2-(2-(2-propenoyl)-2,6-diazaspiro[3.4]octan-6-yl)-5,6,7,8-tetrahydro-1,7-naphthyridine-3-carbonitrile] | 11200 nM | 4570 nM | 930 nM
C=CC(=O)N1CC2(CCN(c3nc4c(c(-c5ccc(F)cc5F)c3C#N)CCN(c3ccc(OC)cc3)C4)C2)C1 [Example 21-7, 4-(2,4-difluorophenyl)-7-(4-methoxyphenyl)-2-(2-(2-propenoyl)-2,6-diazaspiro[3.4]octan-6-yl)-5,6,7,8-tetrahydro-1,7-naphthyridine-3-carbonitrile] | 6020 nM | 749 nM | 94 nM
C=CC(=O)N1CC2(CCN(c3nc4c(c(-c5cc(O)ccc5F)c3C#N)CC3CCC4N3C(C)C)C2)C1 (stereo not drawn) [Example 21-8] | > 25000 nM | 5560 nM | 933 nM
C=CC(=O)N1CC2(CCN(c3nc4c(c(-c5cc(O)ccc5Cl)c3C#N)CCN(C(C)C)C4)C2)C1 [Example 21-9, 4-(2-chloro-5-hydroxyphenyl)-7-(2-propanyl)-2-(2-(2-propenoyl)-2,6-diazaspiro[3.4]octan-6-yl)-5,6,7,8-tetrahydro-1,7-naphthyridine-3-carbonitrile] | > 5000 nM | > 5000 nM | 264 nM
C=CC(=O)N1CC2(CCN(c3nc4c(c(-c5ncccc5F)c3C#N)CCN(c3scnc3C)C4)C2)C1 [Example 21-10, 4-(3-fluoro-2-pyridinyl)-7-(4-methyl-1,3-thiazol-5-yl)-2-(2-(2-propenoyl)-2,6-diazaspiro[3.4]octan-6-yl)-5,6,7,8-tetrahydro-1,7-naphthyridine-3-carbonitrile] | > 5000 nM | 716 nM | 189 nM
C=CC(=O)N1CC2(CCN(c3nc4c(c(-c5ccccc5Cl)c3C#N)CCN(c3scnc3C)C4)C2)C1 [Example 21-11] | 4410 nM | 633 nM | 33 nM
C=CC(=O)N1CC2(CCN(c3nc4c(c(-c5cc(O)ccc5Cl)c3C#N)CN(Cc3scnc3C)C4)C2)C1 [Example 21-12, 4-(2-chloro-5-hydroxyphenyl)-6-((4-methyl-1,3-thiazol-5-yl)methyl)-2-(2-(2-propenoyl)-2,6-diazaspiro[3.4]octan-6-yl)-6,7-dihydro-5H-pyrrolo[3,4-b]pyridine-3-carbonitrile] | > 25000 nM | 5400 nM | 393 nM
